Assays:
[1] = BTX-2 5 μM, 60 min incubations with HLM and fish microsomes
[2] = RSN1 control without NADPH regeneration system
[3] = GSH conjugation of BTX-2 with active RSN2 microsomes and 100 μM GSH; assay type: in vitro ADME, Lutjanus campechanus
[4] = GSH conjugation of BTX-2 with deactivated RSN2 microsomes and 100 μM GSH; assay type: in vitro ADME, Lutjanus campechanus
[5] = Chemical GSH conjugation of BTX-2 without microsomes; assay type: physicochemical
[6] = HLM incubation, decreasing thereafter

## A-ring hydrolyzed BTX-3 [Compound 6a]
[1]
  occurrence of the metabolite across microsomal incubations: produced in all fish microsomes and in HLM

## 41,43-dihydro-BTX-B5 [Compound 5e]
[1]
  occurrence of the metabolite across microsomal incubations: only produced by HLM

## BTX-9 [Compound 3]
[2]
  metabolite formation where the NADPH regeneration system was excluded: not formed

## BTX-2-GSH [Compound 12]
[3]
  formation rate of BTX-2-GSH: 0.18 min⁻¹
[4]
  formation rate of BTX-2-GSH: 0.46 min⁻¹
[5]
  formation rate of BTX-2-GSH: 0.46 min⁻¹

## 41,43-dihydro-BTX-2 [Compound 2b]
[6]
  time at which the metabolite reached a maximum: about 15 min

## 41,43-dihydro-BTX-B5 [Compound 5d]
[1]
  occurrence of the metabolite across microsomal incubations: only produced by HLM

## Hydroxyl BTX-2 (rings A-E) [Compound 4b]
[1]
  occurrence of the metabolite across microsomal incubations: occurred mainly in the two Lutjanid species
